What was measured:
[1] = UV absorption (λmax and ε) of the prepared UV-A screening compounds; format: physicochemical; details: UV absorption maximum; solvent not stated

Compound: CC1=CC(=C(C#N)C#N)C=C(C)N1CCC(C)CC(C)(C)C (stereo not shown) [1-N-[3,5,5-trimethylhexyl]-4-dicyanomethylene-2,6-dimethyl-1,4-dihydropyridine]
- UV: λmax [1]: 372 nm

Compound: CCCCC(CC)COCCCN1C(C)=CC(=C(C#N)C#N)C=C1C (stereo not shown) [1-N-[3-(2-ethylhexyloxy)propyl]-4-dicyanomethylene-2,6-dimethyl-1,4-dihydropyridine]
- UV: λmax [1]: 370 nm

Compound: CCCCN1C(C)=CC(=C(C#N)C#N)C=C1C [1-N-butyl-4-dicyanomethylene-2,6-dimethyl-1,4-dihydropyridine]
- UV: λmax [1]: 370 nm

Compound: CCCCCCCCCCCCN1C(C)=CC(=C(C#N)C#N)C=C1C [1-N-dodecyl-4-dicyanomethylene-2,6-dimethyl-1,4-dihydropyridine]
- UV: λmax [1]: 370 nm

Compound: CC1=CC(=C(C#N)C#N)C=C(C)N1C [1-N-methyl-4-dicyanomethylene-2,6-dimethyl-1,4-dihydropyridine]
- UV: λmax [1]: 368 nm
- melting point: > 250 °C

Compound: CCOC(=O)C(C#N)=C1C=C(C)OC(C)=C1 [Example 1, ethyl (2,6-dimethyl-pyran-4-ylidene) cyanoacetate]
- UV: λmax [1]: 348 nm

Compound: CCCCC(CC)COC(=O)C(C#N)=C1C=C(C)OC(C)=C1 (stereo not shown) [Example 2, 2-ethylhexyl (2,6-dimethyl-pyran-4-ylidene) cyanoacetate]
- UV: λmax [1]: 352 nm

Compound: CCC1=C(C)C(=C(C#N)C#N)C(C)=C(CC)O1 [Example 3, 2-(2,6-diethyl-3,5-dimethylpyran-4-ylidene)malononitrile]
- UV: λmax [1]: 366 nm
- melting point: 64 to 65 °C

Compound: CCCC1=C(CC)C(=C(C#N)C#N)C(CC)=C(CCC)O1 [Example 4, 2-(3,5-diethyl-2,6-dipropylpyran-4-ylidene)malononitrile]
- UV: λmax [1]: 364 nm

Compound: CCCCC(CC)CN1C(C)=CC(=C(C#N)C#N)C=C1C (stereo not shown) [Example 5, 1-N-(2-ethylhexyl)-4-dicyanomethylene-2,6-dimethyl-1,4-dihydropyridine]
- UV: λmax [1]: 372 nm
- melting point: 187 °C

Compound: CCCCC(CC)COC(=O)C(C#N)=C1C=C(C)N(CCCC)C(C)=C1 (stereo not shown) [Example 7, 2-ethylhexyl (1-N-butyl-2,6-dimethyl-1H-pyridin-4-ylidene)cyanoacetate]
- UV: λmax [1]: 374 nm
- melting point: 69 to 70 °C

Compound: CCCCC(CC)COCCCN1C(C)=CC(=C(C#N)C(=O)OCC(CC)CCCC)C=C1C (stereo not shown) [Example 8, 2-ethylhexyl (1-N-[3-(2-ethylhexyloxy)propyl]-2,6-di-methyl-1H-pyridin-4ylidene)cyanoacetate]
- UV: λmax [1]: 366 nm
- melting point: 69 to 70 °C

Compound: CC1=CC(=C(C#N)C#N)C=C(C)N1CCCOCCOCCOCCCN1C(C)=CC(=C(C#N)C#N)C=C1C [Example 9, 2-{1-[3-(2-{2-[3-(4-dicyanomethylene-2,6-dimethyl-4H-pyridin-1-yl)-propoxy]-ethoxy}-ethoxy)-propyl]-2,6-dimethyl-1H-pyridin-4-ylidene}-malononitrile]
- UV: λmax [1]: 372 nm
- melting point: 138 to 139 °C

— US7611696B2, “Sunscreen compositions as well as dihydropyridines and dihydropyranes” (DSM IP Assets B.V., priority 2002, dated 2009)
